Data taken from patent publication US20070191935A1, “Drug Delivery Stent with Extended In Vivo Drug Release” (Conor Medsystems, Inc., priority 2006, published 2007).

What was measured:
[1] = test system: in stent neointimal proliferation; test: clinical trials, in stent neointimal proliferation; conditions: in vivo release greater than 60 days from stent
[2] = in vivo paclitaxel release from stent (explanted stents, total drug load by HPLC)
Text: The measurement of in vivo paclitaxel release from a stent can be performed according to the following Example.
Stents are implanted in a porcine model and explanted at selected time points by removing the entire artery section. The expanded stents are labeled and frozen. The tissue is removed from the stent by slicing the tissue on the outside of the stent lengthwise, inverting the tissue, and removing the tissue by cutting and turning the tissue inside out. The stent may still be covered by a tough elastic membrane which is then removed by splitting the membrane and peeling it off the stent. For longer time points, there will also be a tub of tissue inside the stent. This tube is separated from the stent with tweezers, turned inside out and pulled out of the stent.
The elution rates of drug from the examples are determined in a standard sink condition experiment.
The total drug load (TDL) of paclitaxel from a stent is determined by extracting all the polymer and drug from the stent in a solvent such as dimethyl sulfoxide (DMSO) or acetonitrile. The amount of paclitaxel in a solution sample is determined by High Pressure Liquid Chromatography (HPLC).
The in vivo release kinetic (RK) for paclitaxel from a stent is determined by running the TDL for multiple explanted time points. The TDL for the explanted samples is subtracted from the TDL of an unimplanted stent to determine the amount of paclitaxel released at each of the explanted time points.

Structure (SMILES): CC(=O)O[C@H]1C(=O)[C@@]2(C)[C@H]([C@H](OC(=O)c3ccccc3)[C@]3(O)C[C@H](OC(=O)[C@H](O)[C@@H](NC(=O)c4ccccc4)c4ccccc4)C(C)=C1C3(C)C)[C@]1(OC(C)=O)CO[C@@H]1C[C@@H]2O [paclitaxel]
- in stent neointimal proliferation, longer in vivo release vs more rapid release of the same dosage [1]: lower in stent neointimal proliferation than the more rapid release of the same dosage
- in vivo release of the paclitaxel on the stent in the first 30 days after implantation ([2]; first 30 days after implantation): not more than 40%
- complete release of the entire dose of paclitaxel loaded on the stent ([2]; in vivo): ≤ 8 months
- time until all the drug loaded on the stent is released ([2]; in vivo, FIG. 4): 90 to 180 days
- release rate after day one ([2]; in vivo, after day one, continues for up to about 90 days): under 0.1 μg per day
